In patent US9469613B2, “(N-(cyanomethyl)-4-(2-(4-morpholinophenylamino)pyrimidin-4-yl)benzamide” (Gilead Sciences, Inc., priority 2014, dated 2016):
Where a name gives a salt, the structure may show the parent alone.

How the values were obtained:
[1] = Mass balance/recovery, metabolite profile, pharmacokinetics and safety of radiolabeled CYT-0387; format: in vivo, human; settings: for share of circulating radioactivity: plasma
Procedure: CYT-0387 is a selective small molecule inhibitor of Janus kinase 1 and 2 (JAK1/JAK2) currently under investigation to treat myelofibrosis. This study evaluated the mass balance/recovery, metabolite profile, pharmacokinetics, and safety of radiolabeled CYT-0387 in humans.
Six healthy individuals (subjects) received a single oral dose of 200 mg CYT-0387 containing ˜100 μCi of [^14C]-CYT-0387. Blood samples were collected up to 21 days or until plasma radioactivity in 2 consecutive samples was below detection limit or urine and feces sampling was discontinued. Urine/feces samples were collected up to 21 days or until ≧90% administered dose was recovered in feces and urine and radioactivity in 2 consecutive sampling intervals were ≦1% administered dose. Plasma concentrations of CYT-0387 and metabolites were measured using LC-MS/MS and total radioactivity assessed by liquid scintillation counting. Metabolite profiling was performed in select urine, feces, and plasma samples. Safety assessments were performed throughout the study.

[2] = Solid form hygroscopicity and stability; format: physicochemical; settings: exposed to moisture
Procedure: Dynamic Vapor Sorption: The hygroscopicity of N-(cyanomethyl)-4-(2-(4-morpholinophenylamino)pyrimidin-4-yl)benzamide dihydrochloride monohydrate Form II was evaluated at room temperature using a dynamic vapor sorption (DVS) instrument (TGA Q5000 TA Instruments, New Castle, Del.). Water adsorption and desorption were studied as a function of relative humidity (RH) over the range of 0 to 90% at room temperature. The humidity in the chamber was increased from the initial level 50% RH) to 60% RH and held until the solid and atmosphere reached equilibration. The equilibrium test was continued until passed or expired after 10 hours. At this point, RH was raised 10% higher and the process was repeated until 90% RH was reached and equilibrated. During this period, the water sorption was monitored. For desorption, the relative humidity was decreased in a similar manner to measure a full sorption/desorption cycle. All experiments were operated in dm/dt mode (mass variation over time) to determine the equilibration endpoint. Approximately 4 mg of solid CYT-0387 was used. Data analysis was conducted using Universal Analysis 2000 Version 4.7A (TA Instruments, New Castle, Del., USA).

| SMILES | share of circulating radioactivity [1] [%] | excreted in feces [1] | excreted in urine ([1]; urine) | hygroscopicity and physical stability [2] |
| --- | --- | --- | --- | --- |
| NC(=O)CNC(=O)c1ccc(-c2ccnc(Nc3ccc(N4CCOCC4=O)cc3)n2)cc1 [Compound M8, N-(2-amino-2-oxoethyl)-4-(2-((4-(3-oxomorpholino)phenyl)amino)pyrimidin-4-yl)benzamide] | 5.8 |  |  |  |
| O=C(O)c1ccc(-c2ccnc(Nc3ccc(N4CCOCC4=O)cc3)n2)cc1 [Compound M14, 4-(2-((4-(3-oxomorpholino)phenyl)amino)pyrimidin-4-yl)benzoic acid] |  | 21.4 % of the dose |  |  |
| CC(=O)Nc1ccc(Nc2nccc(-c3ccc(C(=O)NCC#N)cc3)n2)cc1 [Compound M20, 4-(2-((4-acetamidophenyl)amino)pyrimidin-4-yl)-N-(cyanomethyl)benzamide] | 2.3 |  |  |  |
| N#CCNC(=O)c1ccc(-c2ccnc(Nc3ccc(N4CCOCC4=O)cc3)n2)cc1 [Compound M21, N-(cyanomethyl)-4-(2-{[4-(3-oxomorpholin-4-yl)phenyl]amino}pyrimidin-4-yl)benzamide] | 64.2 | 12.7 % of the dose | 11.5 % of the dose |  |
| N#CCNC(=O)c1ccc(-c2ccnc(Nc3ccc(N4CCOCC4)cc3)n2)cc1 [N-(cyanomethyl)-4-(2-(4-morpholinophenylamino)pyrimidin-4-yl)benzamide (CYT-0387) dihydrochloride anhydrous Form I] |  |  |  | hygroscopic and physically unstable |
